From PubChem BioAssay AID1963836 (Molecular Pharmacology Branch, DTP, NCI, 2024)

Test system: 857933-349-R-J2-PDC complex spheroid viability
Experiment: Anticancer human tumor 857933-349-R-J2-PDC patient-derived colon adenocarcinoma cell line growth inhibition [POLQ]
Conditions: for IC50: curve of first compound; for viability, T/C: stronger effect = lower value
Description: Multicellular complex tumor spheroid response to Polymerase (POL) inhibitors (novobiocin, ART-558, RP6685) in combination with a variety of drugs and investigational agents in selected tumor cell lines
The POL inhibitors (novobiocin, ART-558, and RP6685) were evaluated both individually and in combination with standard of care and investigational anticancer small molecules within a complex spheroid model of solid tumors. . Complex spheroids include a stromal component modeled by human endothelial cells (HUVEC) and fibroblasts modeled by human mesenchymal stem cells (MSCs). The concentration ranges selected for each drug and investigational agent were based upon clinically achievable concentrations if the clinical Cmax of the agent was known.
Compounds. The drugs and investigational agents: novobiocin (NSC847541), ART-558 (NSC835418), RP-6685 (NSC848927), peposertib (NSC802822), ceralasertib (NSC780249), elimusertib (NSC800525), camonsertib (NSC841442), AZD-1390 (NSC803789), olaparib (NSC753686), talazoparib (NSC767125), rucaparib (NSC756644), sotorasib (NSC818433), MRTX-1133 (NSC836407), SN-38 (NSC673596), topotecan (NSC609699), epotoside (NSC141540), doxorubicin (NSC123127), gemcitabine (NSC613327), 5-fluorouracil (NSC19893), paclitaxel (NSC125973), vemurafenib (NSC761431), MSA-2 (NSC828583), SN-011 (NSC837082), adavosertib (NSC754352), prexasertib (NSC758257), carboplatin (NSC241240) and oxaliplatin (NSC266046), were obtained from the National Cancer Institute (NCI) Developmental Therapeutics Program Chemical Repository (21). The FDA-approved anticancer drug set is available from the Developmental Therapeutics Program at https://dtp.cancer.gov/organization/dscb/obtaining/. […] The stock solutions were prepared in dimethyl sulfoxide (DMSO, Sigma-Aldrich, St. Louis, MO, cat. D2650), except for the platinum compounds which were prepared in saline (Quality Biological, Gaithersburg, MD, cat. 114-055-101), at 800-fold the tested concentration and stored at -70 degrees C prior to their use. All drugs and investigational agents were tested over a range starting from a high concentration at or near the clinical Cmax and decreasing in half-log increments. If the clinical Cmax for an agent had not been determined, the highest concentration tested was 10 microM, except for SN-38, which was tested at a high concentration of 1 microM.
Cell Culture. All cells were maintained in an incubator at 37 degrees C and 5% CO2 with 95% humidity. The PDC lines were cultured according to standard operating procedures established by the NCI PDMR (https://pdmr.cancer.gov). Table 3 of the manuscript, lists the cell lines along with the number of the three cell types plated to form the mct-spheroids and media for tumor cell growth. After thawing, all PDC lines, except 997537-175-T-J1-PDC and 415267-285-R-J2-PDC, were cultured in Matrigel-coated flasks prepared with a working solution of 1X Ham's F-12 nutrient mix, without supplementation (Thermo Fisher Scientific, cat. 11765054), 100 U/mL penicillin-streptomycin (Thermo Fisher Scientific, cat. 15140122), and 2.5% Matrigel (Corning Inc., Corning, NY, cat. 354248) for the first three passages. The two PDC lines 997537-175-T-J1-PDC and 415267-285-R-J2-PDC were cultured on uncoated flasks. The 857933-349-R-J2-PDC line was cultured in 6C/Colon 1B media containing advanced DMEM/F-12 (Thermo Fisher Scientific, cat. 12634028), 10 mM HEPES (Thermo Fisher Scientific, cat. 15630080), 1X GlutaMAX supplement (Thermo Fisher Scientific, cat. 35050061), 0.1 mg/mL primocin (InvivoGen, San Diego, CA, cat. ant-pm-2), 10% defined fetal bovine serum, heat inactivated (HyClone Laboratories Inc., Logan, UT, cat. SH30070.03HI), 50% L-WRN conditioned media (ATCC, cat. CRL-3276), 1.25 mM N-Acetyl-L-cysteine (Sigma-Aldrich, cat. A9165), 10 mM nicotinamide (Sigma-Aldrich, cat. N0636), 1X B-27 supplement (Thermo Fisher Scientific, cat. 17504044), 1X N-2 supplement (Thermo Fisher Scientific, cat. […]

[1] = second compound 0.0316 µM, first compound 0.0316 µM
[2] = second compound 0.0316 µM, first compound 0.1 µM
[3] = second compound 0.0316 µM, first compound 0.316 µM
[4] = second compound 0.0316 µM, first compound 1 µM
[5] = second compound 0.0316 µM, first compound 3.16 µM
[6] = second compound 0.0316 µM, first compound 10 µM
[7] = second compound 0.1 µM, first compound 0.0316 µM
[8] = second compound 0.1 µM, first compound 0.1 µM
[9] = second compound 0.1 µM, first compound 0.316 µM
[10] = second compound 0.1 µM, first compound 1 µM
[11] = second compound 0.1 µM, first compound 3.16 µM
[12] = second compound 0.1 µM, first compound 10 µM
[13] = second compound 0.316 µM, first compound 0.0316 µM
[14] = second compound 0.316 µM, first compound 0.1 µM
[15] = second compound 0.316 µM, first compound 0.316 µM
[16] = second compound 0.316 µM, first compound 1 µM
[17] = second compound 0.316 µM, first compound 3.16 µM
[18] = second compound 0.316 µM, first compound 10 µM
[19] = second compound 1 µM, first compound 0.0316 µM
[20] = second compound 1 µM, first compound 0.1 µM
[21] = second compound 1 µM, first compound 0.316 µM
[22] = second compound 1 µM, first compound 1 µM
[23] = second compound 1 µM, first compound 3.16 µM
[24] = second compound 1 µM, first compound 10 µM
[25] = second compound 3.16 µM, first compound 0.0316 µM
[26] = second compound 3.16 µM, first compound 0.1 µM
[27] = second compound 3.16 µM, first compound 0.316 µM
[28] = second compound 3.16 µM, first compound 1 µM
[29] = second compound 3.16 µM, first compound 3.16 µM
[30] = second compound 3.16 µM, first compound 10 µM
[31] = second compound 10 µM, first compound 0.0316 µM
[32] = second compound 10 µM, first compound 0.1 µM
[33] = second compound 10 µM, first compound 0.316 µM
[34] = second compound 10 µM, first compound 1 µM
[35] = second compound 10 µM, first compound 3.16 µM
[36] = second compound 10 µM, first compound 10 µM
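Note: spheroids exposed to compounds for seven days before readout.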

COc1ccc([C@@H](O)c2cc(-c3ncnc4cc(N5CCOCC5)ccc34)c(F)cc2Cl)nn1 + COC1C(OC(N)=O)C(O)C(Oc2ccc3c(O)c(NC(=O)c4ccc(O)c(CC=C(C)C)c4)c(=O)oc3c2C)OC1(C)C
IC50 (second compound 0.0316 µM): > 10 µM
IC50 (second compound 0.1 µM): > 10 µM
IC50 (second compound 0.316 µM): > 10 µM
IC50 (second compound 1 µM): > 10 µM
IC50 (second compound 3.16 µM): > 10 µM
IC50 (second compound 10 µM): > 10 µM
viability, T/C [1]: 114%
viability, T/C [2]: 102%
viability, T/C [3]: 123%
viability, T/C [4]: 96.2%
viability, T/C [5]: 91.4%
viability, T/C [6]: 65.3%
viability, T/C [7]: 91.5%
viability, T/C [8]: 123%
viability, T/C [9]: 87%
viability, T/C [10]: 98.7%
viability, T/C [11]: 72%
viability, T/C [12]: 94.3%
viability, T/C [13]: 112%
viability, T/C [14]: 102%
viability, T/C [15]: 84.5%
viability, T/C [16]: 89.2%
viability, T/C [17]: 76.1%
viability, T/C [18]: 61.1%
viability, T/C [19]: 100%
viability, T/C [20]: 93.4%
viability, T/C [21]: 106%
viability, T/C [22]: 79.5%
viability, T/C [23]: 89.8%
viability, T/C [24]: 65.7%
viability, T/C [25]: 89.4%
viability, T/C [26]: 118%
viability, T/C [27]: 101%
viability, T/C [28]: 94.3%
viability, T/C [29]: 77.5%
viability, T/C [30]: 63.8%
viability, T/C [31]: 101%
viability, T/C [32]: 93.5%
viability, T/C [33]: 107%
viability, T/C [34]: 69.5%
viability, T/C [35]: 76.4%
viability, T/C [36]: 72.3%

O=C(c1cc(Cc2n[nH]c(=O)c3ccccc23)ccc1F)N1CCN(C(=O)C2CC2)CC1 + COC1C(OC(N)=O)C(O)C(Oc2ccc3c(O)c(NC(=O)c4ccc(O)c(CC=C(C)C)c4)c(=O)oc3c2C)OC1(C)C
IC50 (second compound 0.0316 µM): > 10 µM
IC50 (second compound 0.1 µM): > 10 µM
IC50 (second compound 0.316 µM): > 10 µM
IC50 (second compound 1 µM): > 10 µM
IC50 (second compound 3.16 µM): > 10 µM
IC50 (second compound 10 µM): > 10 µM
viability, T/C [1]: 125%
viability, T/C [2]: 126%
viability, T/C [3]: 90.8%
viability, T/C [4]: 100%
viability, T/C [5]: 109%
viability, T/C [6]: 84.1%
viability, T/C [7]: 94%
viability, T/C [8]: 130%
viability, T/C [9]: 94.4%
viability, T/C [10]: 88.2%
viability, T/C [11]: 102%
viability, T/C [12]: 79.3%
viability, T/C [13]: 123%
viability, T/C [14]: 123%
viability, T/C [15]: 112%
viability, T/C [16]: 115%
viability, T/C [17]: 92.9%
viability, T/C [18]: 97%
viability, T/C [19]: 93.4%
viability, T/C [20]: 103%
viability, T/C [21]: 87.1%
viability, T/C [22]: 91.2%
viability, T/C [23]: 104%
viability, T/C [24]: 104%
viability, T/C [25]: 92.8%
viability, T/C [26]: 96.8%
viability, T/C [27]: 96.3%
viability, T/C [28]: 81.6%
viability, T/C [29]: 96.1%
viability, T/C [30]: 86.5%
viability, T/C [31]: 84.5%
viability, T/C [32]: 121%
viability, T/C [33]: 79.3%
viability, T/C [34]: 82.7%
viability, T/C [35]: 120%
viability, T/C [36]: 90%

COc1cccc2c1C(=O)c1c(O)c3c(c(O)c1C2=O)CC(O)(C(=O)CO)CC3OC1CC(N)C(O)C(C)O1 (stereo unspecified) + Cc1cccc(N(C)C(=O)C2C(O)CCN2c2nc(C)cc(C(F)(F)F)c2C#N)c1
IC50 (second compound 0.0316 µM): 0.218 µM
IC50 (second compound 0.1 µM): 0.315 µM
IC50 (second compound 0.316 µM): 0.304 µM
IC50 (second compound 1 µM): 0.196 µM
IC50 (second compound 3.16 µM): 0.199 µM
IC50 (second compound 10 µM): 0.176 µM
viability, T/C [1]: 86.9%
viability, T/C [2]: 62.2%
viability, T/C [3]: 47.1%
viability, T/C [4]: 17%
viability, T/C [5]: 0.52%
viability, T/C [6]: 0.28%
viability, T/C [7]: 76.9%
viability, T/C [8]: 79.5%
viability, T/C [9]: 48.4%
viability, T/C [10]: 12.9%
viability, T/C [11]: 0.41%
viability, T/C [12]: 0.35%
viability, T/C [13]: 70.4%
viability, T/C [14]: 79.1%
viability, T/C [15]: 46.7%
viability, T/C [16]: 14%
viability, T/C [17]: 0.45%
viability, T/C [18]: 0.46%
viability, T/C [19]: 74.1%
viability, T/C [20]: 60.1%
viability, T/C [21]: 42.3%
viability, T/C [22]: 6.42%
viability, T/C [23]: 0.28%
viability, T/C [24]: 0.34%
viability, T/C [25]: 86.2%
viability, T/C [26]: 66.4%
viability, T/C [27]: 40.2%
viability, T/C [28]: 7.89%
viability, T/C [29]: 0.38%
viability, T/C [30]: 0.47%
viability, T/C [31]: 65.9%
viability, T/C [32]: 64.1%
viability, T/C [33]: 35.7%
viability, T/C [34]: 4.82%
viability, T/C [35]: 0.36%
viability, T/C [36]: 0.46%
